Results on 31 molecules are retold here after patent publication US20250170141A1, “MRGPRX2 MODULATORS AND RELATED METHODS OF TREATMENT” (Escient Pharmaceuticals, Inc., priority 2023, published 2025).

This assay has as its target T1, human MRGPRX2 (Homo sapiens, UniProt Q96LB1).
T1 construct: expressed in transfected cells; host or cells: CHO cells, stably transfected (G418 and Hygromycin B selection)
T1 sequence (Q96LB1 1-330): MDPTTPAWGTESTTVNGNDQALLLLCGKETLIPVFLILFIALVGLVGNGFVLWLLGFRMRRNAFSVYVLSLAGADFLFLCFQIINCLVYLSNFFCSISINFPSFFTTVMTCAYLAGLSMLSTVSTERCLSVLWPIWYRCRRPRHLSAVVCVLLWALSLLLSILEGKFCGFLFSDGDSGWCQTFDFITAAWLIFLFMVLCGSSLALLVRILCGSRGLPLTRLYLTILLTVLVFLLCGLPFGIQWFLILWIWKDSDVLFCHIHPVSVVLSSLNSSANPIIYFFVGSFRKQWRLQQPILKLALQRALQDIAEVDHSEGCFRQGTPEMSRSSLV
The experiment in a line: MRGPRX2 activity: IP-One Gq HTRF assay in CHO cells, antagonism versus 0.3 uM Cortistatin-14. The class given is cell-based. The following applies: versus 0.3 uM Cortistatin-14 agonist, CHO cells expressing human MRGPRX2, read-out: MRGPRX2 Antagonist Activity. The gist of the method:
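CHO cells stably expressing human MRGPRX2 were treated with a 10-point compound curve (30 uM top, 1:3) plus 0.3 μM Cortistatin-14 in LiCl-containing Tris buffer, pH 8. Incubation was 1 h at 37 °C then 1 h at room temperature; IP-1 was detected by HTRF and IC50 came from the HTRF ratio.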

In the case of `O=S1(=O)N=C(NCc2ccc(F)c(F)c2)Nc2c(Cc3ccccc3Cl)cccc21` [Compound 12-14, 5-(2-chlorobenzyl)-3-((3,4-difluorobenzyl)amino)-4H-benzo[e][1,2,4]thiadiazine 1,1-dioxide], the IC50 was less than 100 nM.

Turning to `Cc1ccc(CNC2=NS(=O)(=O)c3cccc(Cc4ccccc4Cl)c3N2)cc1C` [Compound 12-13, 5-(2-chlorobenzyl)-3-((3,4-dimethylbenzyl)amino)-4H-benzo[e][1,2,4]thiadiazine 1,1-dioxide], the IC50 was less than 100 nM.

On to `O=S1(=O)N=C(NCc2cccc(F)c2)Nc2c(Cc3ccccc3Cl)cccc21` [Compound 12-22, 5-(2-chlorobenzyl)-3-((3-fluorobenzyl)amino)-4H-benzo[e][1,2,4]thiadiazine 1,1-dioxide], for which the IC50 was less than 100 nM.

Regarding `Cc1cc(F)ccc1CNC1=NS(=O)(=O)c2cccc(Cc3ccccc3Cl)c2N1` [Compound 12-7, 5-(2-chlorobenzyl)-3-((4-fluoro-2-methylbenzyl)amino)-4H-benzo[e][1,2,4]thiadiazine 1,1-dioxide], the IC50 is less than 100 nM.

`Cc1cccc(C(C)c2c(F)ccc3c2NC(NCc2cccc(F)c2)=NS3(=O)=O)c1` (stereo not shown) [Compound 22-12, 6-fluoro-3-((3-fluorobenzyl)amino)-5-(1-(m-tolyl)ethyl)-4H-benzo[e][1,2,4]thiadiazine 1,1-dioxide]: the IC50 is less than 100 nM.

Take `Cc1ccc(CNC2=NS(=O)(=O)c3cccc(Cc4ccccc4Cl)c3N2)c(Cl)c1` [Compound 12-5, 3-((2-chloro-4-methylbenzyl)amino)-5-(2-chlorobenzyl)-4H-benzo[e][1,2,4]thiadiazine 1,1-dioxide]: the IC50 was less than 100 nM.

For the molecule `CCC(c1ccccc1F)c1c(F)ccc2c1NC(NCc1ncccc1F)=NS2(=O)=O` (stereo not shown) [Compound 20-1, 6-fluoro-5-(1-(2-fluorophenyl)propyl)-3-(((3-fluoropyridin-2-yl)methyl)amino)-4H-benzo[e][1,2,4]thiadiazine 1,1-dioxide], the IC50 is less than 100 nM.

`N#Cc1ccccc1Oc1c(F)ccc2c1NC(NCc1ncccc1F)=NS2(=O)=O` [Compound 1-8, 2-((6-fluoro-3-(((3-fluoropyridin-2-yl)methyl)amino)-1,1-dioxido-4H-benzo[e][1,2,4]thiadiazin-5-yl)oxy)benzonitrile]: the IC50 was less than 100 nM.

On to `O=C(c1ccccc1Cl)c1cccc2c1NC(NCc1ccccc1F)=NS2(=O)=O` [Compound 16-2, (2-chlorophenyl)(3-((2-fluorobenzyl)amino)-1,1-dioxido-4H-benzo[e][1,2,4]thiadiazin-5-yl)methanone], for which the IC50 was less than 100 nM.

As for `O=S1(=O)N=C(NCc2ccc(F)cc2F)Nc2c(Cc3ccccc3Cl)cccc21` [Compound 12-11, 5-(2-chlorobenzyl)-3-((2,4-difluorobenzyl)amino)-4H-benzo[e][1,2,4]thiadiazine 1,1-dioxide], the IC50 was less than 100 nM.

As to `O=S1(=O)N=C(NCc2cccc3ccccc23)Nc2c1cc(F)c(F)c2Cc1ccccc1Cl` [Compound 4-20, 5-(2-chlorobenzyl)-6,7-difluoro-3-((naphthalen-1-ylmethyl)amino)-4H-benzo[e][1,2,4]thiadiazine 1,1-dioxide], the IC50 lay within 501 to 1000 nM.

For `COc1cccc(C(C)c2c(F)ccc3c2NC(NCc2cccc(F)c2)=NS3(=O)=O)n1` (stereo not shown) [Compound 22-6, 6-fluoro-3-((3-fluorobenzyl)amino)-5-(1-(6-methoxypyridin-2-yl)ethyl)-4H-benzo[e][1,2,4]thiadiazine 1,1-dioxide], the IC50 was less than 100 nM.

Consider `Cc1ccc(NC2=NS(=O)(=O)c3ccc(F)c(Oc4ccccc4Cl)c3N2)cc1` [Compound 1-13, 5-(2-chlorophenoxy)-6-fluoro-3-(p-tolylamino)-4H-benzo[e][1,2,4]thiadiazine 1,1-dioxide], for which the IC50 was more than 2500 nM.

Turning to `O=S1(=O)N=C(NCc2ncccc2F)Nc2c(/C=C/c3ccccc3F)cccc21` [Compound 14-3, (E)-3-(((3-fluoropyridin-2-yl)methyl)amino)-5-(2-fluorostyryl)-4H-benzo[e][1,2,4]thiadiazine 1,1-dioxide], the IC50 is less than 100 nM.

Take `O=S1(=O)N=C(NCc2ccncc2Cl)Nc2c(Cc3ccccc3Cl)cccc21` [Compound 12-17, 5-(2-chlorobenzyl)-3-(((3-chloropyridin-4-yl)methyl)amino)-4H-benzo[e][1,2,4]thiadiazine 1,1-dioxide]: the IC50 was less than 100 nM.

As to `O=S1(=O)N=C(NCc2cc(F)ccc2F)Nc2c1cc(F)c(F)c2Cc1ccccc1Cl` [Compound 4-10, 5-(2-chlorobenzyl)-3-((2,5-difluorobenzyl)amino)-6,7-difluoro-4H-benzo[e][1,2,4]thiadiazine 1,1-dioxide], the IC50 fell in the range of 100 to 500 nM.

Consider `[2H]C([2H])(NC1=NS(=O)(=O)c2ccc(F)c(Oc3ccccc3Cl)c2N1)c1ccccc1` [Compound 1-44, 5-(2-chlorophenoxy)-6-fluoro-3-((phenylmethyl-d2)amino)-4H-benzo[e][1,2,4]thiadiazine 1,1-dioxide], for which the IC50 was in the range of 100 to 500 nM.

For `O=S1(=O)N=C(NCc2ncccc2F)Nc2c1cc(Cl)c(F)c2Oc1ccccc1Cl` [Compound 1-47, 7-chloro-5-(2-chlorophenoxy)-6-fluoro-3-(((3-fluoropyridin-2-yl)methyl)amino)-4H-benzo[e][1,2,4]thiadiazine 1,1-dioxide], the IC50 is 501 to 1000 nM.

Consider `O=S1(=O)N=C(NCc2ncccc2F)Nc2c1ccc(F)c2Oc1c(Cl)ccc2ccccc12` [Compound 1-34, 5-((2-chloronaphthalen-1-yl)oxy)-6-fluoro-3-(((3-fluoropyridin-2-yl)methyl)amino)-4H-benzo[e][1,2,4]thiadiazine 1,1-dioxide], for which the IC50 was less than 100 nM.

For the molecule `CC(C)c1ccc(NC2=NS(=O)(=O)c3cc(F)c(F)c(Cc4ccccc4Cl)c3N2)cc1` [Compound 4-15, 5-(2-chlorobenzyl)-6,7-difluoro-3-((4-isopropylphenyl)amino)-4H-benzo[e][1,2,4]thiadiazine 1,1-dioxide], the IC50 was more than 2500 nM.

For `CC(c1ccccc1F)c1c(F)ccc2c1NC(NCc1cccc(F)n1)=NS2(=O)=O` (stereo not shown) [Compound 9-5, 6-fluoro-5-(1-(2-fluorophenyl)ethyl)-3-(((6-fluoropyridin-2-yl)methyl)amino)-4H-benzo[e][1,2,4]thiadiazine 1,1-dioxide], the IC50 is less than 100 nM.

Take `O=S1(=O)N=C(NCc2cccnc2Cl)Nc2c(Cc3ccccc3Cl)cccc21` [Compound 12-18, 5-(2-chlorobenzyl)-3-(((2-chloropyridin-3-yl)methyl)amino)-4H-benzo[e][1,2,4]thiadiazine 1,1-dioxide]: the IC50 is less than 100 nM.

Consider `O=S1(=O)N=C(NCc2ncccc2F)Nc2c1ccc(F)c2Cc1ccccc1Cl` [Compound 4-1, 5-(2-chlorobenzyl)-6-fluoro-3-(((3-fluoropyridin-2-yl)methyl)amino)-4H-benzo[e][1,2,4]thiadiazine 1,1-dioxide], for which the IC50 is less than 100 nM.

As to `C[C@H](c1ccccc1F)c1c(F)ccc2c1NC(NCc1ccc3c(cnn3C)c1)=NS2(=O)=O` [Compound 24-3, (R)-6-fluoro-5-(1-(2-fluorophenyl)ethyl)-3-(((1-methyl-1H-indazol-5-yl)methyl)amino)-4H-benzo[e][1,2,4]thiadiazine 1,1-dioxide], the IC50 is less than 100 nM.

As to `CC(c1ccc2ccccc2c1)c1c(F)ccc2c1NC(NCc1cccc(F)c1)=NS2(=O)=O` (stereo not shown) [Compound 22-8, 6-fluoro-3-((3-fluorobenzyl)amino)-5-(1-(naphthalen-2-yl)ethyl)-4H-benzo[e][1,2,4]thiadiazine 1,1-dioxide], the IC50 is 100 to 500 nM.

In the case of `COc1ccccc1CNC1=NS(=O)(=O)c2ccc(F)c(Oc3ccccc3Cl)c2N1` [Compound 1-31, 5-(2-chlorophenoxy)-6-fluoro-3-((2-methoxybenzyl)amino)-4H-benzo[e][1,2,4]thiadiazine 1,1-dioxide], the IC50 fell in the range of 100 to 500 nM.

With `O=S1(=O)N=C(NCc2cccc(F)c2)Nc2c1ccc(F)c2Oc1ccccc1Cl` [Compound 1-11, 5-(2-chlorophenoxy)-6-fluoro-3-((3-fluorobenzyl)amino)-4H-benzo[e][1,2,4]thiadiazine 1,1-dioxide], the IC50 was less than 100 nM.

With `O=C(c1ccccc1Cl)c1cccc2c1NC(NCc1ncccc1F)=NS2(=O)=O` [Compound 16-5, (2-chlorophenyl)(3-(((3-fluoropyridin-2-yl)methyl)amino)-1,1-dioxido-4H-benzo[e][1,2,4]thiadiazin-5-yl)methanone], the IC50 was 100 to 500 nM.

For the molecule `CC(c1ccc(N2CCOCC2)cc1)c1c(F)ccc2c1NC(NCc1cccc(F)c1)=NS2(=O)=O` (stereo not shown) [Compound 22-16, 6-fluoro-3-((3-fluorobenzyl)amino)-5-(1-(4-morpholinophenyl)ethyl)-4H-benzo[e][1,2,4]thiadiazine 1,1-dioxide], the IC50 was in the range of 1000 to 2500 nM.

As for `O=S1(=O)N=C(NCc2ncccc2Cl)Nc2c1cc(F)c(F)c2Oc1ccccc1Cl` [Compound 1-6, 5-(2-chlorophenoxy)-3-(((3-chloropyridin-2-yl)methyl)amino)-6,7-difluoro-4H-benzo[e][1,2,4]thiadiazine 1,1-dioxide], the IC50 was less than 100 nM.

Regarding `O=S1(=O)N=C(NCc2ccccc2F)Nc2c1ccc(F)c2Cc1ccccc1Cl` [Compound 4-4, 5-(2-chlorobenzyl)-6-fluoro-3-((2-fluorobenzyl)amino)-4H-benzo[e][1,2,4]thiadiazine 1,1-dioxide], the IC50 fell in the range of 100 to 500 nM.
